One series concerns the target T1, human TRPV1 (Homo sapiens, UniProt Q8NER1).
T1 construct: expressed in transfected cells; host or cells: CHO (Chinese Hamster Ovary) cells, geneticin-selected
Description: FLIPR calcium assay to detect calcium influx in CHO-huTrpV1 cells (antagonism of NADA response). To be noted: stimulated with 2.5 μM NADA (EC80), FLIPR calcium 6, read-out: IC50, antagonist effect against human TRPV1. Type of series: cell-based. Here is the method: Chinese Hamster Ovary (CHO) cells transfected to express human TrpV1 receptor (which are herein referred to as CHO-huTrpV1 cells), were grown in F-12 Ham's Nutrient Mixture media (HyClone SH30026.01) supplemented with 10% Fetal Bovine Serum (Invitrogen #26140-079), 1% Antibiotic/antimycotic (Invitrogen #15240-062) and 500 μg/mL geneticin (ThermoFisher scientific #1031035). Cells were grown in T-75 flasks at 37° C. incubater with 5% CO2. The cells were passaged twice a week at a ratio of 1:10 to 1:20 to maintain steady growth. For experimentation, cells were harvarsted at approximately 80% confluency and plated onto 384 well black cell culture plates (cat #781091, Greinier Bio-One Inc.) at 15,000 cells per well in 20 μl media and grown overnight.
The loading dye was prepared following instruction of Calcium 6 assay kit ([…], #R8190): 10 ml buffer from bottle B was added to 1 vial of bottle A (adapted to room temperature from −20° C.) and mixed well, then 2.5 mM of fresh prepared probenecid was added and mixed well. 20 μl/well of loading dye was added on top of the cells, and incubated at 37° C. for 1 hour 30 min.
Assay buffer preparation: 1×HBSS, 2 mM HEPES, 0.1% BSA plus 2.5 mM freshly prepared probenecid (Invitrogen, #P36400). 25 μl/well assay buffer in 384 well clear plate (cat #782281, Greiner Bio-one) was dispensed with buffer distributor (Multidrop ComB1 from Thermo Scientific). The compounds were in 384 Echo plate (cat #LPL0200, Labcyte) and the starting concentration of compound was 10 mM, then 1 to 3 serial dilution in 100% DMSO, 8 ul/well). 125 nl compounds was transferred to the 384 well plate containing 25 μl/well buffer with Echo® 555 Liquid Handler (Labcyte), such that the compound concentration was 5 fold of final concentration. The plate was shook slowly at 40 rpm/min for 10 min to mix. […]
After compounds were added to the cell plate with loading dye, within 10-15 minutes, cell plate and plate containing NADA was placed into the FLIPR (Fluorescent Imaging Plate Reader) instrument (Tetra System, Molecular device). […]

The nature of series [1]: Solid form stability (humidity exposure, compression, grinding, granulation). Type of series: physicochemical.
The next series in a line: Hygroscopicity by DVS. Type of series: physicochemical.
The nature of the next series: Solubility in solvents. The conditions noted are these: organic solvent or mixture. The series is classed as physicochemical. Here is the method: Compound I is poorly soluble (between 1 and 25 mg/ml) in acetonitrile, dicholormethane, methyl-tert-butyl ether, nitromethane. In toluene and heptane, compound I is sparingly soluble (<1 mg/ml).
A short description of series [2]: Hydrate formation on equilibration in aqueous fluid. The series is classed as physicochemical. The conditions noted are these: equilibrated at 4° C. in water, methanol/water (33:67, 42:58), after 2 weeks and 4 weeks.

pIC50: −log10 of the molar value. Converted amounts (≈) assume the structure as drawn.

T1 sequence (Q8NER1 whole entry): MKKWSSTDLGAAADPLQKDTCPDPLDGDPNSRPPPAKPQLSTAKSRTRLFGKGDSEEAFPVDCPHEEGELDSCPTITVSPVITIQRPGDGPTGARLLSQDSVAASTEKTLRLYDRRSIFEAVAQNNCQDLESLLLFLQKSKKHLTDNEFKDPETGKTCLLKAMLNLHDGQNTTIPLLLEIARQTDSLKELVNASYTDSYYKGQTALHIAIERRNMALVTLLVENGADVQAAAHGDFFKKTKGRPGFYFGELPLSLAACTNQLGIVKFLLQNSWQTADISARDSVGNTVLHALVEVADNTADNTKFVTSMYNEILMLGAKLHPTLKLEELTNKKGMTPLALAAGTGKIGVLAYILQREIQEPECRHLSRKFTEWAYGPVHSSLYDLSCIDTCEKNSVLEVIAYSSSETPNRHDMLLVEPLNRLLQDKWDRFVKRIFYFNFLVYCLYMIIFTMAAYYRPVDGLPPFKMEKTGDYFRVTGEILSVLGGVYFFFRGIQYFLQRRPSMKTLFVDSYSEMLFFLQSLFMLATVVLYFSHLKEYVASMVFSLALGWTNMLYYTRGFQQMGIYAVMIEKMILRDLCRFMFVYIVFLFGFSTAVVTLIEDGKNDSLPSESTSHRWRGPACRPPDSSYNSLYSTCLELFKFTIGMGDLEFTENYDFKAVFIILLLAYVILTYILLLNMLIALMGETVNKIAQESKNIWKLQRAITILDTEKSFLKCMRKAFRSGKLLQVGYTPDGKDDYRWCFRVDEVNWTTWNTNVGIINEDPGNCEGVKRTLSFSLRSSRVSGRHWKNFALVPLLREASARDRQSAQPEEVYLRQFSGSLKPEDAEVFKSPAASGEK

In the case of `OC[C@H](O)c1cc(F)c(CN[C@H]2C[C@H](Oc3ccc(F)c(C(F)(F)F)c3)C2)c2ccncc12` [(R)-1-(6-fluoro-5-((((1r,3R)-3-(4-fluoro-3-(trifluoromethyl)phenoxy)cyclobutyl)amino)methyl)isoquinolin-8-yl)ethane-1,2-diol], the pIC50 at human TRPV1 was 8.20.

Take `OC[C@@H](O)c1cc(F)c(CN[C@H]2C[C@H](Oc3ccc(F)c(C(F)(F)F)c3)C2)c2ccncc12` [Compound I Form A, (S)-1-(6-fluoro-5-((((1r,3S)-3-(4-fluoro-3-(trifluoromethyl)phenoxy)cyclobutyl)amino)methyl)isoquinolin-8-yl)ethane-1,2-diol]: the “Change after humidity exposure” value in series [1] (92% RH for 24 h) is on record as “did not result in change”. For the same compound, in series [1] (compression, only minor peak broadening), the “Form change after compression” value is given as “no form change”. Besides, the “Form change under grinding and granulation” value in series [1] (dry grinding and wet granulation with water and ethanol (XRPD, FIG. 4)) is given as “did not show form change”. Moreover, in “Hygroscopicity by DVS” (DVS), the “Hygroscopicity by DVS” value was “slightly hygroscopic”. Also, the “Solid state change after DVS” value in the series “Hygroscopicity by DVS” (DVS up to 95% RH) is recorded as “no change in solid state”. For the same compound, in “Hygroscopicity by DVS” (DVS, at 95% RH), the Water vapor absorbed entry is “approximately 0.4%”.

`OCC(O)c1cc(F)c(CN[C@H]2C[C@H](Oc3ccc(F)c(C(F)(F)F)c3)C2)c2ccncc12` (mixture of isomers) [Example 1 (mixture of isomers), 1-(6-fluoro-5-((((1r,3r)-3-(4-fluoro-3-(trifluoromethyl)phenoxy)cyclobutyl)amino)methyl)isoquinolin-8-yl)ethane-1,2-diol]: the pIC50 at human TRPV1 is 7.98.

Turning to `OC[C@@H](O)c1cc(F)c(CN[C@H]2C[C@H](Oc3ccc(F)c(C(F)(F)F)c3)C2)c2ccncc12` (single isomer, unassigned), at human TRPV1, the pIC50 is 9.21. Also, the solubility in the series “Solubility in solvents” (organic solvents and alcohol/water mixtures, acetone, 1,4-dioxane, ethanol, ethyl acetate, isopropyl acetate, methanol, 2-methyl-2-butanol, tetrahydrofuran, 1-propanol/water (98.5:1.5), 2-propanol/water (96:4), methanol/water (78:22)) is > 25 mg/mL; in the series “Solubility in solvents” (organic solvents, acetonitrile, dicholormethane, methyl-tert-butyl ether, nitromethane), 1 to 25 mg/mL (≈ 2.13 to 53.4 mM); in the series “Solubility in solvents” (organic solvents, toluene and heptane), < 1 mg/mL. The Hydrate formation result in series [2] was “not observed to form a hydrate”.
